Reference: patent US10172951B2, “Dendrimer based nanodevices for therapeutic and imaging purposes” (priority 2009, dated 2019)
Entries after “also recorded” stand apart in the source; their conditions may differ.

Experiments:
[1] = GSH triggered NAC release from PAMAM dendrimer-NAC conjugates (RP-HPLC); assay type: physicochemical
Protocol: Appropriate amounts of PAMAM-S—S-NAC conjugate were dissolved in release media (Citrate or PBS buffers) to form a solution of 1 mg/ml PAMAM-S—S-NAC. One of the thiol containing molecules (GSH, Cys or BSA) was added to the conjugates to form 10 mM, 2 mM, 0.5 mM 0.1 mM or 2 μM overall thiol group concentrations and to initiate the release of NAC. All samples were run as triplicates for statistical analysis.
As control samples, conjugates were analyzed in both release media in the absence of reducing agents. The solutions were kept at 37° C. and stirred continuously. At predetermined time intervals, […] of samples were withdrawn and immediately analyzed with RP-HPLC and the concentrations of analytes were determined by using appropriate calibrations prepared under same conditions.
Dendrimer NAC conjugates were analyzed for their drug release mechanism and kinetics in the presence of GSH, Cys and BSA. Buffer solutions with pH 5 (Citrate Buffer) and pH 7.4 (Phosphate Buffered Saline) containing various concentrations of these thiol containing moieties were used in release studies.
All GSH concentrations studied were between average plasma (2 μM) and intracellular (2-10 mM) GSH levels. Various GSH concentrations were used in order to determine the GSH dependent release kinetics of the conjugate. The conjugate solutions contained 730 μM NAC in the conjugated form (1 mg/ml PAMAM-S—S-NAC) at the beginning of the release studies. GSH concentration in the release media was compared to the conjugated NAC concentrations in the release solutions for analysis of the release kinetics and mechanism.
The release of NAC from the conjugates was investigated in the presence of GSH at intracellular and extracellular concentrations. It was assumed that the release of NAC would occur by the disulfide exchange reaction. GSH and its oxidized form (GSSG) are responsible for forming the intracellular redox buffer. Intracellularly, GSH takes the role of attacking thiolate moiety and gets oxidized in the process while cleaving the existing disulfide bonds.
(§1) The conjugates were also analyzed in the absence of GSH to verify the stability of the disulfide linkage at physiological pH. […] The extent of the release of drug from both dendrimer-NAC conjugates was also analyzed at plasma and intracellular GSH concentrations. The conjugates and the GSH in required amounts were added to PBS solution, and the solution was analyzed at various time intervals by HPLC for up to 17 hours. UV absorbance peak areas were used to determine the concentrations of each of the species in the solution, based on appropriate calibration curves.

BV-2 cells [2] = experiment: ROS assay in LPS-activated BV-2 cells, 3 hours pre-treatment (Example 18); assay type: cell-based, mouse; conditions: for H2O2 reduction (%): 72 hours LPS following 3 hours treatment; for effect on ROS production: 24 hours LPS following 3 hours pre-treatment, 0.5-8 mM
Protocol: (§2) BV-2 cells (passage 16) were seeded in 24 well plates at 10^5/mL/well and incubated for 24 hours. The medium was removed, and the cells were exposed to 100 ng/mL of LPS and varying concentrations of PAMAM-(COOH)46-(NAC)18 conjugate in 500 μL of serum free medium for 3 hours. The medium was removed again, and 500 μL of fresh serum free medium containing 100 ng/mL of LPS was added and incubated for 24 hours and 72 hours. Control treatment with varying concentrations of free NAC, positive control with 100 ng/mL of LPS induction, but negative control without any LPS induction and treatment were also studied. The culture medium was collected at specific time intervals of 24 hours and 72 hours, and spun at 1500 rpm for 5 min. The supernatant was stored at −80° C. for further assays.
(§3) H2O2 released from BV-2 cells was measured using 10-acetyl-3,7-dihydroxyphenoxazine (Amplex Red), following the manufacturer's instructions (Alexandre et al., 2006; Min et al., 2003). The procedure for cell culture and drug treatment was the same as described in previous section. The supernatant was mixed with 0.05 U/mL of horseradish peroxidase and 1 μM of Amplex Red in 96-well plates. After 30 min incubation, the fluorescence intensity was measured using spectrofluorometry. Excitation and emission wavelengths were 530 nm and 590 nm respectively.

BV-2 cells [3] = experiment: NO release (nitrite) assay in LPS-activated BV-2 cells (Example 18); assay type: cell-based, mouse; conditions: for reduction of nitrite release: 24 hours LPS following 3 hours pre-treatment; for Nitrite reduction (%): 72 hours LPS following 3 hours treatment
Protocol: as §2
(§4) Production of NO was assayed by measuring the levels of nitrite, the stable NO metabolite, in the culture medium. Accumulation of nitrite in the medium was determined by colorimetric assay with Griess reagent system, which uses sulfanilamide and N-(1-Naphthyl)-ethylene diamine. From the treated cells in the medium, 100 μL of the supernatant was incubated with 50 μL of Griess reagent 1 (sulfanilamide) and 50 μL of Griess reagent 2 N-(1-Naphthyl)-ethylenediamine for 10 min at room temperature. The absorbance at 540 nm was then measured, and nitrite concentration was determined using a calibration curve prepared using nitrite standards.

BV-2 cells [4] = experiment: TNF-α ELISA in LPS-activated BV-2 cells (Example 18); assay type: cell-based, mouse; conditions: 72 hours LPS following 3 hours treatment
Protocol: as §2
The procedure for cell culture and drug treatment was the same as described in previous section. TNF-α secretion was measured using an ELISA kit according to the manufacturer's instructions. In brief, 50 μL of supernatant from each sample was added in 96-well ELISA plates. Biotinylated antibody reagent was applied to each well and the plate was incubated at room temperature for 2 hours. After washing the plate with PBS-Tween 20, diluted streptavidin-HRP was added, and the plate was incubated at room temperature for 30 min. After washing the plate, the premixed TMB substrate solution was added. The plate was developed in the dark for 30 min, and read at 450 nm using a microplate reader. The concentration of TNF-α was calculated using murine rTNF-α as standard.

microglial cells = experiment: Cytotoxicity assay in microglial cells (Example 18); assay type: cell-based, mouse; conditions: concentrations tested in vitro
Solubility in PBS/H2O = assay type: physicochemical
[5] = GSH triggered NAC release from PAMAM dendrimer-NAC conjugates (RP-HPLC); assay type: physicochemical; conditions: absence of GSH, or GSH levels in the blood (20 μM)
BV-2 cells [6] = experiment: ROS assay (H2O2, Amplex Red), PEG-NAC conjugates; assay type: cell-based, mouse; conditions: highest concentration 5 mM
Protocol: (§5) (A) BV-2 cells (passage 22) were co-treated with 100 ng/mL of LPS and the indicated concentration of NAC, PEG-NAC conjugate 1 and its corresponding PEG for 72 hours. (B) BV-2 cells were co-treated with 100 ng/mL of LPS and the indicated concentration of NAC, PEG-NAC conjugate 2 and its corresponding PEG for 72 hours. The amount of ROS released into the media was measured using Amplex Red.
as §3, with “instructions. Briefly, the” for “instructions (Alexandre et al., 2006; Min et al., 2003). The”, “nm.” for “nm respectively.”

BV-2 cells [7] = experiment: NO release assay (nitrite, Griess), PEG-NAC conjugates; assay type: cell-based, mouse; conditions: highest concentration 5 mM
Protocol: as §5, with “2” for “2 and”, “Nitrite in culture medium” for “The amount of ROS released into the media”, “Griess reagent system.” for “Amplex Red.”
as §4, with “supernatant.” for “the culture medium.”, “supernatant” for “the medium”, “diamine.” for “diamine. From the treated cells in the medium,”, “a” for “a calibration”, “calibrated with” for “prepared using”

[8] = test system: Mouse microglial cell line (BV-2); experiment: In vitro cytotoxicity, MTT assay (Example 19); conditions: 0.5, 2 and 8 mM
Text: In vitro cytotoxicity of the conjugate, dendrimer and NAC, at conditions similar to that used in the efficacy assays, was investigated by MTT assay. Mouse microglial cell line (BV-2) was obtained from Children's Hospital of Michigan Cell Culture Facility. These cells were used because the eventual in vivo applications seek to target microglial cells that become activated as a result of neuroinflammation.
The lipopolysaccharide (LPS) was used to activate the cells for the ROS assay. For the cytotoxicity study, the LPS treatment was continuous for 24 hours. For both groups, the LPS concentration used was 100 ng/ml. Three concentrations of NAC were studied: 0.5 mM, 2 mM and 8 mM. For the conjugate assays, the concentrations used corresponded to equivalent NAC doses of the free drug treatment groups. Similarly, the dendrimer assays were run by using dendrimer concentrations that were equivalent to conjugate treatments. Control groups included cells receiving only LPS and no other treatment and cells with no LPS or other treatment. The proportion of viable cells in the treated group was compared to that of negative control. The cell viability is expressed as mean±SD of three samples per group, and assessed by t-test.

BV-2 cells [9] = experiment: ROS assay, percent reduction in H2O2 in LPS-treated BV-2 cells (Example 19); assay type: cell-based, mouse; conditions: co-treatment with LPS
Protocol: Cells were treated with lipopolysaccharide (LPS) to induce the production of ROS. The cells were treated with LPS (100 ng/ml) and either NAC, PAMAM-S—S-NAC, or free PAMAM-NH2 dendrimers at appropriate concentrations to study the efficacy of the conjugates for reducing the ROS concentrations. In order to quantify the efficacy of conjugates, H2O2 released from BV-2 cells (ROS) was measured using the Amplex Red Hydrogen Peroxide/Peroxidase Assay Kit using previously established procedures.

[10] = Stability (oxidation) of free NAC and free GSH in PBS; assay type: physicochemical; conditions: over 17 hours
Protocol: as §1

[11] = cited from earlier work
[12] = cited from earlier work; remark: listed apart in the source
[13] = 10 mM GSH, PBS pH 7.4, within 1 hour

With “PAMAM-CO-GS—S-NAC [PAMAM-(COOH)46-(NAC)18]” the “NAC payload in GS-S-NAC (NAC-GSH) form” value [1, 13] was 6%, the “NAC payload released in free form” value [1, 13] was 39% and the “total NAC release” value [1, 13] was 45%. For the same compound, the “NAC payload in GS-S-NAC form” value ([1]; 10 mM GSH, at 17 hours) was 6%, the “free NAC content” value ([1]; 10 mM GSH, at 17 hours) was 46% and the NAC release ([1]; PBS buffer without GSH, 17 hours) was “did not release any of the NAC they carried”. For the same compound, the “NAC payload found as GS-S-NAC or NAC-NAC” value ([1]; plasma GSH concentration (2 μM)) was 1%, the “release of free NAC” value ([1]; plasma GSH concentration (2 μM), 17 hours) was “did not release any detectable levels of free NAC” and the “H2O2 reduction (%)” value (BV-2 cells [2]; 0.5 mM) was 25%. The “H2O2 reduction (%)” value (BV-2 cells [2]; 0.5 mM, listed as D-NAC) was 30.81 ± 8.08%, the “H2O2 reduction (%)” value (BV-2 cells [2]; 2 mM) was 51.13 ± 4.93% and the “H2O2 reduction (%)” value (BV-2 cells [2]; 8 mM) was 68%. The “H2O2 reduction (%)” value (BV-2 cells [2]; 8 mM, listed as D-NAC) was 68.75 ± 4.14%, the “effect on ROS production” value (BV-2 cells [2]) was “significant inhibition of ROS production at 2 mM and 8 mM” and the “reduction of nitrite release” value (BV-2 cells [3]; 0.5 mM NAC equivalent) was roughly 61%. For the same compound, the “Nitrite reduction (%)” value (BV-2 cells [3]; 0.5 mM) was roughly 60%, the “Nitrite reduction (%)” value (BV-2 cells [3]; 0.5 mM, listed as D-NAC) was 60.82 ± 6.05% and the “Nitrite reduction (%)” value (BV-2 cells [3]; 2 mM) was 64.85 ± 5.12%. For the same compound, the “Nitrite reduction (%)” value (BV-2 cells [3]; 8 mM) was 75.75 ± 1.85%, the “free drug dosage with comparable activity relative to conjugate dose (8 mM vs 0.5 mM)” value (BV-2 cells [3]; lowest conjugate dose 0.5 mM NAC) was 16 × and the “TNF-α reduction (%)” value (BV-2 cells [4]; 0.5 mM) was roughly 67%. For the same compound, the “TNF-α reduction (%)” value (BV-2 cells [4]; 0.5 mM, listed as D-NAC) was 67.46 ± 3.91%, the “TNF-α reduction (%)” value (BV-2 cells [4]; 2 mM) was 74.43 ± 3.54% and the “TNF-α reduction (%)” value (BV-2 cells [4]; 8 mM) was 77.37 ± 3.31%. For the same compound, the cytotoxicity (microglial cells) was “relatively nontoxic; also recorded: non-toxic”, the “Solubility in PBS/H2O” value (Solubility in PBS/H2O) was “Highly” and the drug release [5] was “no drug release”.
In the case of `CC(=O)N[C@@H](CS)C(=O)O` [NAC, N-acetyl-L-cysteine, reference compound], the “reduction of H2O2 levels” value (BV-2 cells [6]) is reported as 30-40%, the “reduction of nitrite levels” value (BV-2 cells [7]) is reported as 30-40% and the “H2O2 reduction (%)” value (BV-2 cells [2]; 0.5 mM) is reported as 5.54 ± 6.38%. The “H2O2 reduction (%)” value (BV-2 cells [2]; 2 mM) was 22.28 ± 8.33%, the “H2O2 reduction (%)” value (BV-2 cells [2]; 8 mM) was 41.31 ± 2.33% and the “effect on ROS production” value (BV-2 cells [2]) was “did not affect ROS production”. For the same compound, the “Nitrite reduction (%)” value (BV-2 cells [3]; 0.5 mM) was 10.52 ± 6.43%, the “Nitrite reduction (%)” value (BV-2 cells [3]; 2 mM) was 34.66 ± 3.22% and the “reduction of nitrite release” value (BV-2 cells [3]; 8 mM) was roughly 70%. For the same compound, the “Nitrite reduction (%)” value (BV-2 cells [3]; 8 mM) was 72.70 ± 5.56%, the “TNF-α reduction (%)” value (BV-2 cells [4]; 0.5 mM) was 34.98 ± 2.43% and the “TNF-α reduction (%)” value (BV-2 cells [4]; 2 mM) was 35.13 ± 4.44%. For the same compound, the “TNF-α reduction (%)” value (BV-2 cells [4]; 8 mM) was 44.57 ± 4.35%, the cytotoxicity (microglial cells) was “relatively nontoxic” and the cytotoxicity [8] was “no cytotoxicity”. For the same compound, the “reduction in H2O2 levels” value (BV-2 cells [9]; 0.5 mM NAC (equivalent), 24 hours) was 6%, the “reduction in H2O2 levels” value (BV-2 cells [9]; 0.5 mM NAC (equivalent), 72 hours) was 7% and the “reduction in H2O2 levels” value (BV-2 cells [9]; 8 mM, 24 hours) was 57%. For the same compound, the “reduction in H2O2 levels” value (BV-2 cells [9]; 8 mM, 72 hours) was 125%, the “converted to oxidized form” value [10] was 25% and the biological half-life ([11]; in the blood stream) was 1.5 hours. For the same compound, the bioavailability ([11]; reduced by binding to plasma proteins) was “less than 8%”.
In the case of `N[C@@H](CCC(=O)N[C@@H](CS)C(=O)NCC(=O)O)C(=O)O` [GSH, glutathione], the “converted to oxidized form” value [10] is listed as 25% and the “pKa of thiol group” value [12] is listed as roughly 8.8.
